Laboratory results reported in ChEMBL document CHEMBL1159185, “Metabolism and structure activity data based drug design: discovery of () SCH 53079 an analog of the potent cholesterol absorption inhibitor () SCH 48461” (1996).

Experiments:
Cricetinae gen. sp. [1] = assay: Compound was evaluated for the reduction of liver cholesterol ester levels in the cholesterol-fed Hamster model at 50 mg/kg; type: functional
Cricetinae gen. sp. [2] = assay: Compound was evaluated for the reduction of liver cholesterol ester levels in the cholesterol-fed Hamster model at 50 mpk; type: functional
Cricetinae gen. sp. [3] = assay: Compound was evaluated for the reduction of liver cholesterol ester levels in the cholesterol-fed Hamster model.; type: functional
Monkey = assay: Compound was evaluated for the reduction of liver cholesterol ester levels in the cholesterol-fed rhesus monkey model.; type: functional, Cercopithecidae
Rattus norvegicus [4] = species: Rattus norvegicus; assay: Compound was evaluated for the plasma concentration in female rats at 1 hr after post dose; type: functional, organism-based
Rattus norvegicus [5] = species: Rattus norvegicus; assay: Compound was evaluated for the plasma concentration in female rats at 2 hr after post dose; type: functional, organism-based
Rattus norvegicus [6] = species: Rattus norvegicus; assay: Compound was evaluated for the plasma concentration in female rats at 4 hr after post dose; type: functional, organism-based
Rattus norvegicus [7] = species: Rattus norvegicus; assay: Compound was evaluated for the plasma concentration in female rats at 24 hr after post dose; type: functional, organism-based
Rattus norvegicus [8] = species: Rattus norvegicus; assay: Compound was evaluated for the plasma concentration in female rats at 8 hr after post dose; type: functional, organism-based

## COc1ccc([C@@H]2[C@@H](CCOc3ccc([N+](=O)[O-])cc3)C(=O)N2c2ccccc2)cc1
Cricetinae gen. sp. [1]
  Reduction: -31%

## COc1ccc(OCC[C@H]2C(=O)N(c3ccccc3)[C@@H]2c2ccc(OC)cc2)cc1
Cricetinae gen. sp. [1]
  Reduction: -82%

## COc1ccc([C@@H]2[C@@H](CCOc3ccc(F)cc3F)C(=O)N2c2ccccc2)cc1
Cricetinae gen. sp. [1]
  Reduction: -88%

## COc1ccc([C@@H]2[C@@H](CCOc3ccccc3)C(=O)N2c2ccc(OC)cc2)cc1
Cricetinae gen. sp. [1]
  Reduction: -39%

## COc1ccc([C@@H]2[C@@H](CCOc3ccc4c(c3)CCC4)C(=O)N2c2ccccc2)cc1 (racemic)
Cricetinae gen. sp. [1]
  Reduction: -46%

## COc1ccc([C@@H]2[C@@H](CCOc3ccc(I)cc3)C(=O)N2c2ccccc2)cc1 (racemic)
Cricetinae gen. sp. [1]
  Reduction: -47%

## COc1ccc([C@@H]2[C@@H](CCOc3ccc(F)cc3)C(=O)N2c2ccc(OC)cc2)cc1 (racemic)
Cricetinae gen. sp. [1]
  Reduction: -93%

## COc1ccc([C@@H]2[C@@H](CCCc3ccccc3)C(=O)N2c2ccc(OC)cc2)cc1 (racemic) [SCH-48461]
Cricetinae gen. sp. [2]
  Reduction: -78%

## COc1ccc([C@@H]2[C@@H](CCOc3ccc(F)cc3)C(=O)N2c2ccccc2)cc1 (stereo in doubt; (+)4)
Cricetinae gen. sp. [1]; 50 mg/kg
  Reduction: -28%

## COc1ccc([C@@H]2[C@@H](CCOc3ccc(F)cc3)C(=O)N2c2ccccc2)cc1 (stereo in doubt; (+/-)4)
Cricetinae gen. sp. [1]; 50 mg/kg
  Reduction: -95%

## COc1ccc([C@@H]2[C@@H](CCOc3ccc(F)cc3)C(=O)N2c2ccccc2)cc1 (stereo in doubt; (-)4) [listing 1 of 2 here]
Cricetinae gen. sp. [3]
  ED50: 2.2 mg/kg
Monkey
  ED100: 0.3 MPK
Cricetinae gen. sp. [1]; 50 mg/kg
  Reduction: -93%

## COc1ccc([C@@H]2[C@@H](CCOc3ccc(F)cc3)C(=O)N2c2ccccc2)cc1 (stereo in doubt; (-)4) [listing 2 of 2 here]
Rattus norvegicus [4]
  Plasma level: > 30 ng/mL
Rattus norvegicus [5]
  Plasma level: 41.1 ng/mL
Rattus norvegicus [6]
  Plasma level: < 30 ng/mL
Rattus norvegicus [7]
  Plasma level: < 30 ng/mL
Rattus norvegicus [8]
  Plasma level: 239 ng/mL

## COc1ccc([C@@H]2[C@@H](CCCc3ccccc3)C(=O)N2c2ccc(OC)cc2)cc1 [SCH-48461]
Monkey
  ED100: 1 MPK
